# Like-named read-outs stand apart in the source and are kept apart here.
# Columns and labels:
# [1] = tested on: lymphoma residual disease (diseased cells mobilized into blood)
# Method: About 12 hours after plerixafor administration, patients in the LBYE group undergo a blood draw. The blood samples are subjected to MRD assay. […] In another variation of the experiment, where lymphoma patients serve as their own controls, patients undergo blood sampling after attaining complete remission. The blood is subjected to MRD assay. After the blood test is done, each patient receives 20 mg plerixafor and the blood is sampled 12 hours later. These blood samples are subjected to MRD assay by the same technique.
# [2] = tested on: HSC; details: in vivo; cited from earlier work
# [3] = tested on: cfDNA / ctDNA; details: plasma
# Method: Cell-free DNA (cfDNA) is isolated from patient plasma samples according to known methods. The concentration of the isolated cfDNA from LBYE and control patients are determined.
# [4] = tested on: multiple myeloma mutations and genetic variations; details: single dose of 20 mg, blood 12 hours later, vs control group bone marrow
# Source text: Patients may be matched across experimental groups by age, sex, and other clinical factors, such as multiple myeloma burden or genetic profile of the multiple myeloma in the patient.
# [5] = tested on: lymphoma mutations and genetic variations; details: single dose of 20 mg, blood 12 hours later, vs control group bone marrow
# Method: Human patients who are diagnosed with lymphoma are split into two experimental groups, an “LBYE” group and a “control group.” Patients may be matched across experimental groups by age, sex, and other clinical factors, such as lymphoma burden or genetic profile of the lymphoma in the patient.
# Patients in the “LBYE” experimental group are administered a single dose of 20 mg plerixafor and undergo blood sampling 12 hours later. This sample is analyzed for the presence of various mutations and genetic variations known to influence prognosis in myeloma. […] In a variation on the above experiment, the LBYE group patients undergo a bone marrow examination which is subjected to appropriate testing.
# In another variation on the experiment, the LBYE group's marrow and blood sample are pooled and analyzed in a single assay to make the test more cost-effective. […] The mononuclear cell fraction is analyzed for the presence of lymphoma CTCs by multiparametric flow cytometry according to methods described herein. Lymphoma CTCs are genetically profiled, e.g., by sequencing to determine the mutational profile of the CTCs. Mutational profile of the CTC sample is, in some cases, compared to mutational profile of lymphoma cells obtained from bone marrow sample from the same patient.
# [6] = tested on: solid tumor mutations and genetic variations; details: single dose of 20 mg, blood 12 hours later, vs control group solid tumor examination
# Method: Human patients who are diagnosed with one or more solid tumors are split into two experimental groups, an “LBYE” group and a “control group.” Patients may be matched across experimental groups by age, sex, and other clinical factors, such as solid tumor burden or genetic profile of the solid tumor in the patient.
# Patients in the “LBYE” experimental group are administered a single dose of 20 mg plerixafor and undergo blood sampling 12 hours later. This sample is analyzed for the presence of various mutations and genetic variations known to influence prognosis in myeloma. […] In a variation on the above experiment, the LBYE group patients undergo a solid tumor examination which is subjected to appropriate testing.
# In another variation on the experiment, the LBYE group's tumor and blood samples are pooled and analyzed in a single assay to make the test more cost-effective. […] The mononuclear cell fraction is analyzed for the presence of solid tumor CTCs by multiparametric flow cytometry according to methods described herein. Solid tumor CTCs are genetically profiled, e.g., by sequencing to determine the mutational profile of the CTCs. Mutational profile of the CTC sample is, in some cases, compared to mutational profile of solid tumor cells obtained from solid tumor sample from the same patient.
# [7] = tested on: multiple myeloma residual disease (diseased cells mobilized into blood)
# Method: Patients may be matched across experimental groups by age, sex, and other clinical factors, such as multiple myeloma burden or genetic profile of the multiple myeloma in the patient. When in complete remission using conventional techniques after appropriate therapy, patients in the control group undergo a blood as well as bone marrow examination each of which is subjected to MRD detection/assay using the ClonoSEQ® technique (Adaptive Biotechnologies). […] About 12 hours after plerixafor administration, patients in the LBYE group undergo a blood draw. The blood samples are subjected to MRD assay using the ClonoSEQ® technique. […] In another variation of the experiment, where myeloma patients serve as their own controls, patients undergo bone marrow examination after attaining complete remission. The marrow is subjected to MRD assay by ClonoSEQ®. After the marrow exam is done, each patient receives 20 mg plerixafor and the blood is sampled 12 hours later. Blood samples are subjected to MRD assay by ClonoSEQ®.
# [8] = tested on: solid tumor residual disease (diseased cells mobilized into blood)
# Method: When in complete remission using conventional techniques after appropriate therapy, patients in the control group undergo a blood examination each of which is subjected to MRD detection/assay using an appropriate assay (e.g. The Guardant 360 liquid biopsy or the Tempus XF liquid biopsy). […] About 12 hours after plerixafor administration, patients in the LBYE group undergo a blood draw. The blood samples are subjected to the same MRD assay.
# In another variation of the experiment, where cancer patients serve as their own controls, patients undergo blood examination after attaining complete remission. Afterwards, each patient receives 20 mg plerixafor and the blood is sampled 12 hours later. Both samples are subjected to MRD assay.
# [9] = complete remission, single 20 mg dose, blood about 12 hours after, vs control group blood and bone marrow
# [10] = patients as own controls, 20 mg, blood 12 hours later
smiles,measurement,setting,value
"c1cc(CN2CCCNCCNCCCNCC2)ccc1CN1CCCNCCNCCCNCC1 [plerixafor, 1-{[4-(1,4,8,11-tetrazacyclotetradec-1-ylmethyl)phenyl]methyl}-1,4,8,11-tetrazacyclotetradecane]",Number of patients with residual disease detected (MRD assay),[1]; [9],Residual disease is detected in a greater number of patients in the LBYE group than in the control group
same,"Proportion of patients positive for MRD, blood after LBYE vs non-LBYE blood sample",[1]; [10],A greater proportion of patients is found to be positive for MRD from the blood after the LBYE technique than the non-LBYE blood sample
same,Mobilization of HSC,[2],rapidly mobilize HSC within hours
same,cfDNA concentration/amount after LBYE,"[3]; lymphoma, patients as own controls, amongst patients positive for MRD",the concentration/amount of cfDNA is higher after LBYE
same,"cfDNA concentration, LBYE group vs control group",[3]; multiple myeloma,higher cfDNA concentrations than patients in the control group
same,"cfDNA concentration, LBYE group vs control group",[3]; solid tumor,higher cfDNA concentrations than patients in the control group
same,Frequency and breadth of abnormalities (mutations and genetic variations),[4],greater frequency and breadth of abnormalities than those in the control group
same,Frequency and breadth of abnormalities (mutations and genetic variations),[5],greater frequency and breadth of abnormalities than those in the control group
same,Frequency and breadth of abnormalities (mutations and genetic variations),[6],greater frequency and breadth of abnormalities than those in the control group
same,"Number of patients with residual disease detected (MRD assay, ClonoSEQ)",[7]; [9],Residual disease is detected in a greater number of patients in the LBYE group than in the control group
same,"Proportion of patients positive for MRD, blood after LBYE vs bone marrow","[7]; patients as own controls, 20 mg, blood 12 hours later, ClonoSEQ",A greater proportion of patients is found to be positive for MRD from the blood after the LBYE technique than the bone marrow
same,Number of patients with residual disease detected (MRD assay),"[8]; complete remission, single 20 mg dose, blood about 12 hours after, vs control group blood",Residual disease is detected in a greater number of patients in the LBYE group than in the control group
same,"Proportion of patients positive for MRD, post- vs pre-plerixafor blood sample",[8]; [10],"A greater proportion of patients is found to be positive for MRD from the blood sample obtained after plerixafor administration, as compared to the pre-plerixafor blood sample"

# Source: patent US11933783B2, “Liquid biopsy yield enhancement” (priority 2020, dated 2024)
